Laboratory results published in ChEMBL document CHEMBL1153577, “2D- and 3D-QSAR studies on 54 anti-tumor Rubiaceae-type cyclopeptides” (Eur J Med Chem, 2009).

Test system: P388
Experiment: Cytotoxicity against mouse P388 cell
Format: functional, cell-based
Settings: for IC50: Mus musculus, P388

Row | Compound | IC50 [nM] | pIC50 (p388)
1 | C/C=C/c1ccc(C[C@H]2C(=O)N[C@@H](C)C(=O)N(C)[C@H]3Cc4ccc(cc4)Oc4cc(ccc4OC)C[C@@H](C(=O)N[C@H](C)C(=O)N[C@@H](C)C(=O)N2C)N(C)C3=O)cc1 | 5.01 | –
2 | COC(=O)C[C@@H]1NC(=O)[C@@H](C)NC(=O)[C@@H]2Cc3ccc(OC)c(c3)Oc3ccc(cc3)C[C@@H](C(=O)N2C)N(C)C(=O)[C@H](C)NC(=S)[C@H](Cc2ccc(OC)cc2)N(C)C1=O | 4.79 | –
3 | COc1ccc(C[C@H]2C(=O)N[C@@H](C)C(=O)N(C)[C@H]3Cc4ccc(cc4)Oc4cc(ccc4OC)C[C@@H](C(=O)N[C@H](C)C(=O)N[C@@H](CS)C(=O)N2C)N(C)C3=O)cc1 | 363 | –
4 | COc1ccc(C[C@H]2C(=O)N[C@@H](C)C(=O)N(C)[C@H]3Cc4ccc(cc4)Oc4cc(ccc4OC)C[C@@H](C(=O)N[C@H](C)C(=O)N[C@@H](CO)C(=O)N2C)N(C)C3=O)cc1 | 14.1 | –
5 | COc1ccc(C[C@H]2C(=O)N[C@@H](C)C(=O)N(C)[C@H]3Cc4ccc(cc4)Oc4cc(ccc4OC)C[C@@H](C(=O)N[C@H](C)C(=O)N[C@@H](CCCO)C(=O)N2C)N(C)C3=O)cc1 | 174 | –
6 | COc1ccc(C[C@H]2C(=O)N[C@@H](C)C(=O)N(C)[C@H]3Cc4ccc(c(O)c4)Oc4cc(ccc4O)C[C@@H](C(=O)N[C@H](C)C(=O)N[C@@H](C)C(=O)N2C)N(C)C3=O)cc1 | 9120 | –
7 | COc1ccc(C[C@H]2C(=O)N[C@@H](C)C(=O)N(C)[C@H]3Cc4ccc(cc4)Oc4cc(ccc4OC)C[C@@H](C(=O)N[C@H](C)C(=O)N4CCC[C@H]4C(=O)N2C)N(C)C3=O)cc1 | 100 | –
8 | COc1ccc(C[C@H]2C(=O)N[C@@H](C)C(=O)N(C)[C@H]3Cc4ccc(cc4)Oc4cc(ccc4OC)C[C@@H](C(=O)N[C@H](C)C(=O)NC4(SCCS4)C(=O)N2C)N(C)C3=O)cc1 | 631 | –
9 | C=C[C@@H]1NC(=O)[C@@H](C)NC(=O)[C@@H]2Cc3ccc(OC)c(c3)Oc3ccc(cc3)C[C@@H](C(=O)N2C)N(C)C(=O)[C@H](C)NC(=O)[C@H](Cc2ccc(OC)cc2)N(C)C1=O | 25.7 | –
10 | COc1ccc(C[C@H]2C(=S)N[C@@H](C)C(=O)N(C)[C@H]3Cc4ccc(cc4)Oc4cc(ccc4OC)C[C@@H](C(=O)N[C@H](C)C(=S)N[C@@H](C)C(=O)N2C)N(C)C3=O)cc1 | 5.5 | –
11 | COc1ccc(C[C@H]2C(=O)N[C@@H](C)C(=O)N(C)[C@H]3Cc4ccc(c(O)c4)Oc4cc(ccc4OC)C[C@@H](C(=O)N[C@H](C)C(=O)N[C@@H](C)C(=O)N2C)N(C)C3=O)cc1O | 15100 | –
12 | CCCc1ccc(C[C@H]2C(=O)N[C@@H](C)C(=O)N(C)[C@H]3Cc4ccc(cc4)Oc4cc(ccc4OC)C[C@@H](C(=O)N[C@H](C)C(=O)N[C@@H](C)C(=O)N2C)N(C)C3=O)cc1 | 25.7 | –
13 | COc1ccc(C[C@H]2C(=O)N[C@@H](C)C(=O)N(C)[C@H]3Cc4ccc(cc4)Oc4cc(ccc4OC)C[C@@H](C(=O)N[C@H](C)C(=O)N[C@@H](CC(=O)O)C(=O)N2C)N(C)C3=O)cc1 | 1200 | –
14 | CCc1ccc(C[C@H]2C(=O)N[C@@H](C)C(=O)N(C)[C@H]3Cc4ccc(cc4)Oc4cc(ccc4OC)C[C@@H](C(=O)N[C@H](C)C(=O)N[C@@H](C)C(=O)N2C)N(C)C3=O)cc1 | 9.33 | –
15 | COc1ccc(C[C@H]2C(=S)N[C@@H](C)C(=O)N(C)[C@H]3Cc4ccc(cc4)Oc4cc(ccc4O)C[C@@H](C(=O)N[C@H](C)C(=O)N[C@@H](C)C(=O)N2C)N(C)C3=O)cc1 | 1.15 | –
16 | C=CC[C@@H]1NC(=O)[C@@H](C)NC(=O)[C@@H]2Cc3ccc(OC)c(c3)Oc3ccc(cc3)C[C@@H](C(=O)N2C)N(C)C(=O)[C@H](C)NC(=O)[C@H](Cc2ccc(OC)cc2)N(C)C1=O | 38.9 | –
17 | COc1ccc(C[C@H]2C(=O)N[C@@H](C)C(=O)N(C)[C@H]3Cc4ccc(cc4)Oc4cc(ccc4OC)C[C@@H](C(=O)N[C@H](C)C(=O)N[C@@H](CSC(C)=O)C(=O)N2C)N(C)C3=O)cc1 | 9.77 | –
18 | COc1ccc(C[C@H]2C(=O)N[C@@H](C)C(=O)N(C)[C@H]3Cc4ccc(cc4)Oc4cc(ccc4OC)C[C@@H](C(=O)N[C@H](C)C(=O)N[C@@H](CCCCO)C(=O)N2C)N(C)C3=O)cc1 | 219 | –
19 | COc1ccc(C[C@H]2C(=O)N[C@@H](C)C(=O)N(C)[C@H]3Cc4ccc(cc4)Oc4cc(ccc4OC)C[C@@H](C(=O)N[C@H](C)C(=O)N[C@@H](CCCN=[N+]=[N-])C(=O)N2C)N(C)C3=O)cc1 | 35.5 | –
20 | COc1ccc(C[C@H]2C(=O)N[C@@H](C)C(=O)N(C)[C@H]3Cc4ccc(cc4)Oc4cc(ccc4OC)C[C@@H](C(=O)N[C@H](C)C(=O)N4CCCC[C@H]4C(=O)N2C)N(C)C3=O)cc1 | 97.7 | –
21 | COc1ccc(C[C@H]2C(=S)N[C@@H](C)C(=O)N(C)[C@H]3Cc4ccc(cc4)Oc4cc(ccc4OC)C[C@@H](C(=O)N[C@H](C)C(=O)N[C@@H](C)C(=O)N2C)N(C)C3=O)cc1 | 0.741 | –

Row | Compound | IC50 [nM] | pIC50 (p388)
22 | COc1ccc2cc1Oc1ccc(cc1)C[C@H]1C(=O)N(C)[C@@H](C2)C(=O)N[C@H](C)C(=O)N[C@@H](C)C(=O)N(C)[C@@H](Cc2ccccc2)C(=O)N[C@@H](C)C(=O)N1C | 295 | –
23 | COc1ccc(C[C@H]2C(=O)N[C@@H](C)C(=O)N(C)[C@H]3Cc4ccc(cc4)Oc4cc(ccc4OC)C[C@@H](C(=O)N[C@H](C)C(=O)N[C@@H](CCC(=O)O)C(=O)N2C)N(C)C3=O)cc1 | 219 | –
24 | CCC[C@@H]1NC(=O)[C@@H](C)NC(=O)[C@@H]2Cc3ccc(OC)c(c3)Oc3ccc(cc3)C[C@@H](C(=O)N2C)N(C)C(=O)[C@H](C)NC(=O)[C@H](Cc2ccc(OC)cc2)N(C)C1=O | 13.8 | –
25 | COc1ccc(C[C@H]2C(=O)N[C@@H](C)C(=O)N(C)[C@H]3Cc4ccc(cc4)Oc4cc(ccc4OC)C[C@@H](C(=O)N[C@H](C)C(=O)N[C@@H](CCO)C(=O)N2C)N(C)C3=O)cc1 | 60.3 | –
26 | COC(=O)C[C@@H]1NC(=O)[C@@H](C)NC(=O)[C@@H]2Cc3ccc(OC)c(c3)Oc3ccc(cc3)C[C@@H](C(=O)N2C)N(C)C(=O)[C@H](C)NC(=O)[C@H](Cc2ccc(OC)cc2)N(C)C1=O | 41.7 | –
27 | COC(=O)CC[C@@H]1NC(=O)[C@@H](C)NC(=O)[C@@H]2Cc3ccc(OC)c(c3)Oc3ccc(cc3)C[C@@H](C(=O)N2C)N(C)C(=O)[C@H](C)NC(=O)[C@H](Cc2ccc(OC)cc2)N(C)C1=O | 58.9 | –
28 | COc1ccc(C[C@H]2C(=S)N[C@@H](C)C(=O)N(C)[C@H]3Cc4ccc(cc4)Oc4cc(ccc4OC)C[C@@H](C(=S)N[C@H](C)C(=O)N[C@@H](C)C(=O)N2C)N(C)C3=O)cc1 | 2.14 | –
29 | COc1ccc(C[C@H]2C(=O)N[C@@H](C)C(=O)N(C)[C@H]3Cc4ccc(cc4)Oc4cc(ccc4OC)C[C@@H](C(=O)N[C@H](C)C(=O)N[C@@H](CC=O)C(=O)N2C)N(C)C3=O)cc1 | 33.9 | –
30 | COc1ccc(C[C@@H]2NC(=O)[C@H](C)NC(=O)[C@@H](C)NC(=O)[C@@H]3Cc4ccc(OC)c(c4)Oc4ccc(cc4)C[C@@H](C(=O)N3C)N(C)C(=O)[C@H](C)NC2=O)cc1 | 120 | –
31 | C[C@@H]1NC(=O)[C@@H](C)NC(=O)[C@@H]2Cc3cccc(c3)Oc3ccc(cc3)C[C@@H](C(=O)N2C)N(C)C(=O)[C@H](C)NC(=O)[C@H](Cc2ccccc2)N(C)C1=O | 525 | –
32 | COc1ccc2cc1Oc1ccc(cc1)C[C@H]1C(=O)N(C)[C@@H](C2)C(=O)N[C@H](C)C(=O)N[C@@H](C)C(=O)N(C)[C@@H](Cc2ccc(C)cc2)C(=O)N[C@@H](C)C(=O)N1C | 24 | –
33 | COc1ccc(C[C@H]2C(=O)N[C@@H](C)C(=O)N(C)[C@H]3Cc4ccc(cc4)Oc4cc(ccc4OC)C[C@@H](C(=O)N[C@H](C)C(=O)N[C@@H](CCSC)C(=O)N2C)N(C)C3=O)cc1 | 20.4 | –
34 | COc1ccc(C[C@H]2C(=O)N[C@@H](C)C(=O)N(C)[C@H]3Cc4ccc(cc4)Oc4cc(ccc4OC)C[C@@H](C(=O)N[C@H](C)C(=O)N[C@@H](C)C(=O)N2C)N(C)C3=O)cc1O | 214 | –
35 | C=Cc1ccc(C[C@H]2C(=O)N[C@@H](C)C(=O)N(C)[C@H]3Cc4ccc(cc4)Oc4cc(ccc4OC)C[C@@H](C(=O)N[C@H](C)C(=O)N[C@@H](C)C(=O)N2C)N(C)C3=O)cc1 | 17 | –
36 | C[C@@H]1NC(=O)[C@@H](C)NC(=O)[C@@H]2Cc3ccc(O)c(c3)Oc3ccc(cc3)C[C@@H](C(=O)N2C)N(C)C(=O)[C@H](C)NC(=O)[C@H](Cc2ccccc2)N(C)C1=O | 42.7 | –
37 | COc1ccc(C[C@H]2C(=O)N[C@@H](C)C(=O)N(C)[C@H]3Cc4ccc(cc4)Oc4cc(ccc4OC)C[C@@H](C(=O)N[C@H](C)C(=O)N4C(=O)CC[C@H]4C(=O)N2C)N(C)C3=O)cc1 | 457 | –
38 | COc1ccc(C[C@H]2C(=O)N[C@@H](C)C(=O)N(C)[C@H]3Cc4ccc(cc4)Oc4cc(ccc4OC)C[C@@H](C(=S)N[C@H](C)C(=O)N[C@@H](C)C(=O)N2C)N(C)C3=O)cc1 | 3.31 | –
39 | COc1ccc(C[C@H]2C(=S)N[C@@H](C)C(=O)N(C)[C@H]3Cc4ccc(cc4)Oc4cc(ccc4OC)C[C@@H](C(=O)N[C@H](C)C(=O)N[C@@H](C)C(=S)N2C)N(C)C3=O)cc1 | 1.62 | –
40 | COc1ccc(C[C@H]2C(=O)N[C@@H](C)C(=O)N(C)[C@H]3Cc4ccc(c(O)c4)Oc4cc(ccc4OC)C[C@@H](C(=O)N[C@H](C)C(=O)N[C@@H](C)C(=O)N2C)N(C)C3=O)cc1 (stereo in doubt; 39) | 4790 | –
41 | COc1ccc(C[C@H]2C(=O)N[C@@H](C)C(=O)N(C)[C@H]3Cc4ccc(c(O)c4)Oc4cc(ccc4OC)C[C@@H](C(=O)N[C@H](C)C(=O)N[C@@H](C)C(=O)N2C)N(C)C3=O)cc1 (stereo in doubt; 40) | – | 5.24
42 | COc1ccc(C[C@H]2C(=O)N[C@@H](C)C(=O)N(C)[C@H]3Cc4ccc(cc4)Oc4cc(ccc4O)C[C@@H](C(=O)N[C@H](C)C(=O)N[C@@H](C)C(=O)N2C)N(C)C3=O)cc1 [DEOXYBOUVARDIN] | 3.55 | –
